From patent publication US7033829B2, “Method to inhibit cell growth using oligonucleotides” (Trustees of Boston University, priority 2000, dated 2006)
Oligonucleotides are written 5' to 3', each unit as a sugar letter and its base; * is a phosphorothioate linkage, no mark a phosphodiester; rarer units and linkages stand in square brackets, end groups in braces. Plain capitals give the bases only. d = 2'-deoxy (DNA); {P} = phosphate

Columns and labels:
[1] = Skin penetration of fluorescently-labeled oligonucleotides (ear); format: in vivo, Mice; details: in propylene glycol, 4 hours
Procedure: The compounds of the present invention were tested for skin penetration and in vivo melanogenic activity. Mice were treated (on their ears) with fluorescently-labeled pTpT or SEQ ID NO: 1 (comprising a 5′ phosphate) in propylene glycol for 4 hours, then ear skin was sectioned and examined by confocal microscopy. […] Thus pTpT and SEQ ID NO: 1 comparably penetrate the skin barrier.

Jurkat cells = assay: FACS cell cycle / apoptosis analysis of Jurkat cells; format: cell-based, human; details: for apoptosis in human T cells: summary of Example 13; for cell cycle profile: 0.4 μM; for cells accumulated in the S-phase: 5 μM, within 72 hours (diluent 36%)
Procedure: Oligonucleotides homologous to the telomere overhang repeat sequence (TTAGGG; SEQ ID NO:11), sequence (11mer-1: pGTTAGGGTTAG; SEQ ID NO: 5), complementary to this sequence (11mer-2: pCTAACCCTAAC; SEQ ID NO: 9) and unrelated to the telomere sequence (11mer-3: pGATCGATCGAT; SEQ ID NO: 10) were added to cultures of Jurkat cells, a line of human T cells, one of the cell types reported to undergo apoptosis in response to telomere disruption. Within 48 hours, 50% of the cells treated with 40 μM of SEQ ID NO: 5 had accumulated in the S phase, compared to 25–30% for control cells (p<0.0003, non-paired t-test; see FIGS. 19A–19D), and by 72 hours, 13% of these cells were apoptotic as determined by a sub-G0/G1 DNA content, compared to 2–3% of controls (p<0.007, non-paired t-test; see FIGS. 19E–19H). At 96 hours, 20±3% of the 11mer-1 treated cells were apoptotic compared with 3–5% of controls (p<0.0001, non-paired t-test). To exclude preferential uptake of the 11mer-1 as an explanation of its singular effects, Jurkat cells were treated with oligonucleotides labeled on the 3′ end with fluorescein phosphoramidite, then subjected to confocal microscopy and FACS analysis. The fluorescence intensity of the cells was the same after all treatments at 4 hours and 24 hours.
Three DNA oligonucleotides were designed initially: one homologous to the telomere overhang (11mer-1: pGTTAGGGTTAG; SEQ ID NO:5), one complementary to this sequence (11mer-2: pCTAACCCTAAC; SEQ ID NO:9) and one unrelated (11mer-3: pGATCGATCGAT; SEQ ID NO:10). For later experiments, additional 11 base oligonucleotides were designed: one a simple permutation of 11mer-1 (pGGGTTAGGGTT; SEQ ID NO:13), one with the same number of G residues but roughly 50% rather than 100% homology to the overhang (pTAGATGTGGTG; SEQ ID NO:14), and one with roughly 50% overhang homology but also containing cytosine bases (pCGGGCTTATTG; SEQ ID NO:15) (Midland Certified Reagent Company, Midland, Tex.). Cell Sources and Culture Human neonatal fibroblasts were established and cultured as previously described (Eller, M. S., et al., 1997, Proc Natl Acad Sci USA 94: 12627–12632). Fibroblasts from a Nijmegen breakage syndrome (NBS) patient (#GM07166) and an age-matched control (GM03399) were purchased from the NIGMS Human Cell Repository, Coriell Institute for Medical Research, Camden, N.J.) and cultured in DMEM/15% FBS. Saos-2 cells were purchased from the American Type Culture Collection (ATCC; Manassas, Va.). SCC12F cells were the kind gift of Dr. James Rheinwald, Harvard University. Cell Cycle Analysis The established line of human T lymphocytes, termed Jurkat cells (180,000 cells/ml) were plated in RPMI medium 1640 supplemented with 3% FBS (both from GIBCO/BRL, Gaithersburg, Md.). […] Cells were collected up to 96 hours after treatment, stained with propidium iodide and analyzed by FACS using a Becton-Dickinson FacsScan and CellQuest software. Caspase Activity
Oligonucleotides homologous to the 3′ overhang sequence (11mer-1: pGTTAGGGTTAG; SEQ ID NO:5), complementary to this sequence (11mer-2: pCTAACCCTAAC; SEQ ID NO:9) and unrelated to the telomere sequence (11mer-3: pGATCGATCGAT; SEQ ID NO:10) were synthesized. The three 11mer oligonucleotides were added to cultures of Jurkat cells, an established line of human T lymphocytes, a cell type reported to undergo apoptosis in response to telomere disruption [Karlseder, J., et al, (1999) Science 283, 1321–1325] and DNA damaging ionizing radiation (IR) [Vigorito, E., et al, (1999), Hematol Cell Ther 41, 153–161]. Duplicate cultures of Jurkat cells were treated with a final concentration of 40 μM 11mer-1, -2 or -3, oligonucleotides, or an equal volume of diluent (water) as a control. Cells were collected up to 96 hours after treatment, stained with propidium iodideandanalyzed by FACS. See also Example 13 and FIGS. 19A–19H.
To further confirm the specificity of these responses to the telomere overhang sequence, three variations were tested. […]

[2] = system: Apurinic Endonuclease-1 (APE-1); assay: APE-1 western blot in fibroblasts; format: cell-based, human; details: 100 μM pTpT; 10 μM or 60 μM SEQ ID NO:5; within 24 hours, sustained at least 48 hours
Procedure: Fibroblasts (human newborn) were maintained in 10% CS-supplemented DMEM containing 100 μM pTpT, 10 μM or 60 μM oligonucleotide pGTTAGGGTTAG (SEQ ID NO:5), or diluent as control. Total cellular proteins were harvested at different intervals after supplementation and processed for western blot analysis. Expression of APE-1, the rate-limiting enzyme in repair of 8-oxoguanine (the principal form of oxidative DNA damage) was studied. The blot was incubated with anti APE-1 antibodies (APE/Ref-1 monoclonal IgG2b, Novus Biologicals, Inc. Littleton, Colo.). Within 24 hours of supplementation with pTpT or the 11mer oligonucleotide having nucleotide sequence SEQ ID NO:5, the 37 kDa APE-1 protein was induced in samples stimulated with the oligonucleotides as compared to diluent control. The induction was sustained for at least 48 hours, when the experiment was terminated. Coomassie blue-stained residual bands on the gel confirmed uniform loading of the different lanes.

| Substance | skin penetration (confocal microscopy) [1] | apoptosis in human T cells (Jurkat cells) | cell cycle profile (Jurkat cells; 96 hours) | cells accumulated in the S-phase (Jurkat cells) [%] | treated cells in the S-phase (Jurkat cells; 20 μM, 72 hours) [%] | apoptosis (sub-G0/G1 peak) (Jurkat cells; 40 μM, 96 hours) | APE-1 protein [2] | further results |
| --- | --- | --- | --- | --- | --- | --- | --- | --- |
| pGAGTATGAG (DNA, 5' {P}, backbone not given here) [SEQ ID NO: 1] | brightly stained epidermis and hair follicles | – | – | – | – | – | – | – |
| pCTAACCCTAAC (DNA, 5' {P}, backbone not given here) [SEQ ID NO: 9, reference compound] | – | did not significantly increase apoptosis | – | – | – | – | – | – |
| pGTTAGGGTTAG (DNA {P}-dGdTdTdAdGdGdGdTdTdAdG) [SEQ ID NO: 5] | – | induced human T cells to undergo apoptosis | neither of the oligonucleotides affected | 61 | 58±1 | induced extensive apoptosis | induced | apoptotic cells (sub-G0/G1 DNA content) (Jurkat cells; 40 μM, 72 hours): 13%; cells in S phase (Jurkat cells; 40 μM, 72 hours): 38%; apoptotic cells (Jurkat cells; 40 μM, 96 hours): 20±3%; cells accumulated in the S phase (Jurkat cells; 40 μM, within 48 hours): 50%; activity of the two complete telomere overhang homologs (Jurkat cells; separate paired cultures): equal in activity |
| pGATCGATCGAT (DNA {P}-dGdAdTdCdGdAdTdCdGdAdT) [SEQ ID NO: 10, reference compound] | – | did not significantly increase apoptosis | – | – | – | – | – | – |
| thymidine dinucleotide [pTpT] | brightly stained epidermis and hair follicles | – | – | 45 | 53±1 | – | induced | higher concentration needed to duplicate the 11mer-1 effect on cell cycle arrest (Jurkat cells): 4 fold; apoptosis (Jurkat cells; 20 μM, even at 96 hours): No apoptosis was detected |
| 11mer-1-S: phosphorothioate 11mer-1 (dG*dT*dT*dA*dG*dG*dG*dT*dT*dA*dG; further chemistry not fully specified) | – | – | neither of the oligonucleotides affected | – | – | had no effect | – | – |
